Source: PubChem BioAssay (NCI)
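Five concentrations, 48 hours, 96-well plates. Definition used: TGI = concentration required for complete inhibition of growth.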

Tests used:
Assay in all cases: growth of human tumour cells (NCI), 48 h
786-0 renal = tested on: 786-0 renal
A498 renal = tested on: A498 renal
BT-549 breast = tested on: BT-549 breast
DU-145 prostate = tested on: DU-145 prostate
EKVX NSCLC = tested on: EKVX NSCLC
HCT-116 colon = tested on: HCT-116 colon
HOP-92 NSCLC = tested on: HOP-92 NSCLC
HS 578T breast = tested on: HS 578T breast
KM12 colon = tested on: KM12 colon
MDA-N = tested on: MDA-N
NCI-H226 lung = tested on: NCI-H226 lung
NCI-H460 lung = tested on: NCI-H460 lung
OVCAR-3 ovarian = tested on: OVCAR-3 ovarian
OVCAR-8 ovarian = tested on: OVCAR-8 ovarian
SN12C renal = tested on: SN12C renal
UACC-257 melanoma = tested on: UACC-257 melanoma
HCC-2998 colon = tested on: HCC-2998 colon

SMILES	TGI (786-0 renal)	TGI (A498 renal)	TGI (BT-549 breast)	TGI (DU-145 prostate)	TGI (EKVX NSCLC)	TGI (HCT-116 colon)	TGI (HOP-92 NSCLC)	TGI (HS 578T breast)	TGI (KM12 colon)	TGI (MDA-N)	TGI (NCI-H226 lung)	TGI (NCI-H460 lung)	TGI (OVCAR-3 ovarian)	TGI (OVCAR-8 ovarian)	TGI (SN12C renal)	TGI (UACC-257 melanoma)	TGI (HCC-2998 colon)
Clc1ccc(OCc2nnc3sc(-c4ccc(-c5ccc(Cl)cc5Cl)o4)nn23)cc1	> 100 µM	> 100 µM	> 100 µM	> 100 µM	> 100 µM	> 100 µM	> 100 µM	> 100 µM	> 100 µM	> 100 µM	> 100 µM	> 100 µM	> 100 µM	> 100 µM	> 100 µM	> 100 µM	
O=S(=O)(SC1=NCCN1)c1cccc2ccccc12	74.9 µM	89.7 µM	76 µM	> 100 µM	> 100 µM	> 100 µM	> 100 µM		45.1 µM	39.4 µM	73 µM	84.3 µM	> 100 µM	> 100 µM	48.1 µM	> 100 µM	> 10 µM
N#CC(C#N)N=Nc1ccc(-c2nc3ccccc3o2)cc1	30.8 µM	31.2 µM	31.8 µM	31.5 µM	29.9 µM	19.5 µM	> 100 µM	> 100 µM	50.5 µM	45.2 µM		30.4 µM	9.77 µM	> 100 µM	30.5 µM	17.8 µM	14.7 µM
CC(=O)OCC(C)(COC(C)=O)N1C(=O)C2C3c4ccccc4C(c4ccccc43)C2C1=O (stereo unspecified)	> 100 µM	> 100 µM	> 100 µM	> 100 µM	> 100 µM	> 100 µM	> 100 µM	> 100 µM	> 100 µM	> 100 µM	> 100 µM	> 100 µM	> 100 µM	> 100 µM		> 100 µM	
CC(C)C[C@H](NC(=O)[C@H](Cc1ccc(F)cc1)NC(=O)c1ccccn1)B(O)O	< 0.01 µM		< 0.01 µM		0.0933 µM	< 0.01 µM	< 0.01 µM	< 0.0121 µM	< 0.01 µM	< 0.01 µM	< 0.01 µM	0.0504 µM	< 0.01 µM	< 0.01 µM	< 0.01 µM	< 0.01 µM	< 0.01 µM
ONC1=Nc2ccccc2C(=S)N2CSCC12 (stereo unspecified)	> 100 µM	> 100 µM	> 100 µM	> 100 µM	> 100 µM	> 100 µM		> 100 µM	> 100 µM	45.1 µM	> 100 µM	42.3 µM	> 100 µM	> 100 µM	> 100 µM	> 100 µM	> 100 µM
CCOC(=O)c1cc(Br)c(-c2cc(C)no2)[nH]1	> 100 µM	75.6 µM	> 100 µM	73.8 µM	> 100 µM	> 100 µM	> 100 µM		24.7 µM	> 100 µM	> 100 µM	55 µM	95.1 µM	> 100 µM	> 100 µM	> 100 µM	
c1ccc(C(=NCCC2CNc3ccccc32)c2ccccc2)cc1 (stereo unspecified)	> 100 µM	> 100 µM	> 100 µM	> 100 µM	> 100 µM	> 100 µM	> 100 µM	> 100 µM	> 100 µM	> 100 µM		> 100 µM	> 100 µM	> 100 µM		> 100 µM	> 100 µM
C=C1C(=O)OC2C3C(=C)[C@@H](OC(C)=O)CC3C(C)=CC(OC(=O)C(C)(OC(C)=O)C(C)OC(C)=O)[C@@H]12 (stereo partly specified)	33.5 µM		33 µM	30.5 µM	30.9 µM	23.8 µM		> 100 µM	33.4 µM	30.1 µM	51.8 µM	60.4 µM	26.7 µM	> 100 µM	29.5 µM	32.1 µM	33.2 µM
O=C(O)CCC(N=NNc1ccc(-c2nc3ccccc3[nH]2)cc1)C(=O)O (stereo unspecified)	> 100 µM	> 100 µM	70.6 µM	> 100 µM	> 100 µM	> 100 µM	> 100 µM	> 100 µM	> 100 µM	> 100 µM	> 100 µM	> 100 µM	> 100 µM	> 100 µM	> 100 µM	> 100 µM	
COc1ccc(NC(C)=O)c(C(O)CCNC(C)=O)c1 (stereo unspecified)	> 100 µM	> 100 µM	> 100 µM	> 100 µM	> 100 µM	> 100 µM	> 100 µM	> 100 µM	> 100 µM	> 100 µM	> 100 µM	> 100 µM	> 100 µM	> 100 µM	> 100 µM	> 100 µM	
COC(=O)C1=C(C)NC(C)=C(C(=O)OC)C1c1ccc(N=O)cc1	27.7 µM		23 µM	19.2 µM	34.1 µM	36.8 µM	8.95 µM	40.8 µM	33.4 µM	16.6 µM	39.3 µM	41.9 µM	26.9 µM	21.7 µM	35.8 µM	23.2 µM	33.7 µM
COc1nc2c(c(=O)n1C)N=C(c1ccccc1)[C@H](C(CC(=O)c1ccccc1)c1ccccc1)C(c1ccccc1)N2 (stereo partly specified)	> 100 µM	> 100 µM	> 100 µM	> 100 µM	> 100 µM	> 100 µM	> 100 µM		> 100 µM	> 100 µM	> 100 µM		> 100 µM	> 100 µM	> 100 µM	> 100 µM	> 100 µM
CCN(CC)c1ccc2nc3ccc(N=Nc4c(O)ccc5ccccc45)cc3[n+](-c3ccccc3)c2c1	> 100 µM		> 100 µM	> 100 µM	> 100 µM	> 100 µM	> 100 µM	> 100 µM	> 100 µM	> 100 µM	> 100 µM		> 100 µM	> 100 µM	> 100 µM	> 100 µM	
CSc1nc2c(c(N3CCOCC3)n1)C(O)n1c(nc3ccccc31)S2 (stereo unspecified)	> 100 µM	> 100 µM	> 100 µM	> 100 µM	> 100 µM	> 100 µM	> 100 µM	92.7 µM	> 100 µM	> 100 µM		> 100 µM	> 100 µM	> 100 µM	> 100 µM	> 100 µM	> 100 µM
O=c1c(-c2ccccc2F)coc2cc(F)ccc12	> 100 µM	> 100 µM	> 100 µM	> 100 µM	> 100 µM	> 100 µM	> 100 µM	> 100 µM	> 100 µM	> 100 µM	> 100 µM	> 100 µM	> 100 µM	> 100 µM	> 100 µM	> 100 µM	
Cn1c2ccccc2c(=O)c2cccc(C(=O)NCC(=O)O)c21	> 100 µM		> 100 µM	> 100 µM	> 100 µM	> 100 µM		> 100 µM	> 100 µM	> 100 µM	> 100 µM	> 100 µM	> 100 µM	> 100 µM	> 100 µM	> 100 µM	> 100 µM
COc1cc2c(cc1OC)C(=O)C1(C2)[C@H](c2ccccc2)C2C(=O)c3cc(OC)c(OC)cc3C2[C@H]1c1ccccc1 (stereo partly specified)	> 100 µM	> 100 µM	> 100 µM	> 100 µM	> 100 µM	> 100 µM		> 100 µM	> 100 µM	> 100 µM	> 100 µM	> 100 µM	> 100 µM	> 100 µM	> 100 µM	> 100 µM	> 100 µM
Oc1cc(N2CCCC2)ccc1/C=N/N1C(=S)N(c2ccccc2)C(=Nc2ccccc2)C1=Nc1ccccc1	> 100 µM		> 100 µM	> 100 µM	> 100 µM	> 100 µM	> 100 µM	> 100 µM	> 100 µM	> 100 µM	> 100 µM	> 100 µM	> 100 µM	> 100 µM	> 100 µM	> 100 µM	> 100 µM
O=C1c2ccccc2C2C1C(c1ccccc1)C1(Cc3ccccc3C1=O)C2c1ccccc1 (stereo unspecified)	> 100 µM		> 100 µM	> 100 µM	> 100 µM	> 100 µM	> 100 µM	> 100 µM	> 100 µM	> 100 µM	> 100 µM	> 100 µM	> 100 µM	> 100 µM	> 100 µM	> 100 µM	> 100 µM
CC1(C)N=C(N)N=C(N)N1c1cccc(C(=O)Nc2ccc(S(=O)(=O)F)cc2)c1	> 100 µM	> 100 µM	> 100 µM	> 100 µM	> 100 µM	> 100 µM	> 100 µM	> 100 µM	> 100 µM	> 100 µM	> 100 µM	> 100 µM	> 100 µM	> 100 µM	> 100 µM	> 100 µM	
CCOC(=O)c1c(C)n(C)c2c1cc(O)c1[nH]c3c(c12)CCCC3	42.3 µM		> 100 µM	> 100 µM	45.1 µM	50.3 µM	16.8 µM	87.4 µM	37.3 µM	34.3 µM		42.9 µM	25.1 µM	66.3 µM	61.3 µM	31.7 µM	
